System: subjects with AK on the face or scalp
Assay: Phase 2a study KX01-AK-002: local skin reactions (grade 0 not present to 4 worst) and adverse events, 0.5 mg KX-01 on 25 cm^2
Format: in vivo, human
Description: An ongoing Phase 2a, open-label, multicenter, activity and safety study of KX-01 administered topically in subjects with AK on the face or scalp is described herein. […] Secondary objectives are to assess the activity of KX-01 administered topically during Days 1-57 based on reduction of AK lesion counts from baseline, assess the safety and tolerability and pharmacokinetics, and contrast the dose regimens (5-day treatment with 3-day treatment) in terms of activity and safety in subjects with AK on the face or scalp. This uncontrolled, nonrandomized trial is being conducted at 16 investigational sites in the United States. Enrollment is sequential for 2 cohorts of approximately 80 subjects each. Enrollment is closed for Cohort 1 and ongoing for Cohort 2. The two treatment cohorts are summarized below: • Cohort 1: 0.5 mg KX-01 administered topically to a contiguous treatment area of 25 cm^2 with 4-8 clinically typical AK lesions for 5 consecutive days • Cohort 2: 0.5 mg KX-01 administered topically to a contiguous treatment area of 25 cm^2 with 4-8 clinically typical AK lesions for 3 consecutive days
0.5 mg KX-01 is administered topically to an area of 25 cm^2 on the face or scalp by site staff on treatment days. […] AK lesion counts are recorded at baseline, days 8, 15, 29, and 57. […] Standardized photography of treatment area is performed at baseline, day 8 and day 57. Plasma samples are being collected at preplanned time points on days 1 and 5 for Cohort 1, and on days 1 and 3 for Cohort 2.
Absence or presence of hyperpigmentation, hypopigmentation and scarring are also assessed. Application site reactions not classified as LSRs are reported as AEs. […] LSRs and AEs are reported separately. All LSRs, pigmentation, and scarring in the treatment area will be followed to resolution or stabilization.
The range of possible composite scores is 0-24.
The Phase 2a trial described in Example 2a was completed with 84 eligible subjects enrolled in each of two cohorts: one cohort was subjected to the treatment for 5 consecutive days, and the other cohort was subjected to the treatment for 3 consecutive days. The results are described below and in FIG. 5.

[1] = Cohort 1 (5-day), 67 subjects with day 57 visit

SMILES: O=C(Cc1ccc(-c2ccc(OCCN3CCOCC3)cc2)cn1)NCc1ccccc1 [KX-01]
- Subjects with no LSR in the treatment area throughout the study [1]: 7
- Subjects with vesiculation/pustulation [1]: Three
- Number of TEAEs considered related to KX-01 (Cohort 1 (5-day), N=82): 12
- Subjects reporting TEAEs considered related to KX-01 (Cohort 1 (5-day), N=82): Seven
- Total number of TEAEs (Cohort 1 (5-day), N=82): 54
- Cases of application site reaction (Cohort 1 (5-day), N=82, mild tenderness, stinging, pruritus): 6
- Subjects whose LSRs had not returned to baseline at day 57 (Cohort 1 (5-day), of 60 subjects with LSRs): 8
- Number of SAEs (Cohort 1 (5-day), in 2 subjects, none considered related to study drug): 3
- Crusting grade 0, n/N subjects (Day 1, Cohort 1 (5-day)): 62/67
- Crusting grade 1, n/N subjects (Day 1, Cohort 1 (5-day)): 5/67
- Crusting grade 2, n/N subjects (Day 1, Cohort 1 (5-day)): 0
- Crusting grade 3, n/N subjects (Day 1, Cohort 1 (5-day)): 0
- Crusting grade 4, n/N subjects (Day 1, Cohort 1 (5-day)): 0
- Erosion/Ulceration grade 0, n/N subjects (Day 1, Cohort 1 (5-day)): 67/67
- Erosion/Ulceration grade 1, n/N subjects (Day 1, Cohort 1 (5-day)): 0
- Erosion/Ulceration grade 2, n/N subjects (Day 1, Cohort 1 (5-day)): 0
- Erosion/Ulceration grade 3, n/N subjects (Day 1, Cohort 1 (5-day)): 0
- Erosion/Ulceration grade 4, n/N subjects (Day 1, Cohort 1 (5-day)): 0
- Erythema grade 0, n/N subjects (Day 1, Cohort 1 (5-day)): 56/67
- Erythema grade 1, n/N subjects (Day 1, Cohort 1 (5-day)): 11/67
- Erythema grade 2, n/N subjects (Day 1, Cohort 1 (5-day)): 0
- Erythema grade 3, n/N subjects (Day 1, Cohort 1 (5-day)): 0
- Erythema grade 4, n/N subjects (Day 1, Cohort 1 (5-day)): 0
- Flaking/Scaling grade 0, n/N subjects (Day 1, Cohort 1 (5-day)): 55/67
- Flaking/Scaling grade 1, n/N subjects (Day 1, Cohort 1 (5-day)): 12/67
- Flaking/Scaling grade 2, n/N subjects (Day 1, Cohort 1 (5-day)): 0
- Flaking/Scaling grade 3, n/N subjects (Day 1, Cohort 1 (5-day)): 0
- Flaking/Scaling grade 4, n/N subjects (Day 1, Cohort 1 (5-day)): 0
- Swelling grade 0, n/N subjects (Day 1, Cohort 1 (5-day)): 67/67
- Swelling grade 1, n/N subjects (Day 1, Cohort 1 (5-day)): 0
- Swelling grade 2, n/N subjects (Day 1, Cohort 1 (5-day)): 0
- Swelling grade 3, n/N subjects (Day 1, Cohort 1 (5-day)): 0
- Swelling grade 4, n/N subjects (Day 1, Cohort 1 (5-day)): 0
- Vesiculation/Pustulation grade 0, n/N subjects (Day 1, Cohort 1 (5-day)): 67/67
- Vesiculation/Pustulation grade 1, n/N subjects (Day 1, Cohort 1 (5-day)): 0
- Vesiculation/Pustulation grade 2, n/N subjects (Day 1, Cohort 1 (5-day)): 0
- Vesiculation/Pustulation grade 3, n/N subjects (Day 1, Cohort 1 (5-day)): 0
- Vesiculation/Pustulation grade 4, n/N subjects (Day 1, Cohort 1 (5-day)): 0
- Crusting grade 0, n/N subjects (Day 2, Cohort 1 (5-day)): 64/67
- Crusting grade 1, n/N subjects (Day 2, Cohort 1 (5-day)): 2/67
- Crusting grade 2, n/N subjects (Day 2, Cohort 1 (5-day)): 1/67
- Crusting grade 3, n/N subjects (Day 2, Cohort 1 (5-day)): 0
- Crusting grade 4, n/N subjects (Day 2, Cohort 1 (5-day)): 0
- Erosion/Ulceration grade 0, n/N subjects (Day 2, Cohort 1 (5-day)): 67/67
- Erosion/Ulceration grade 1, n/N subjects (Day 2, Cohort 1 (5-day)): 0
- Erosion/Ulceration grade 2, n/N subjects (Day 2, Cohort 1 (5-day)): 0
- Erosion/Ulceration grade 3, n/N subjects (Day 2, Cohort 1 (5-day)): 0
- Erosion/Ulceration grade 4, n/N subjects (Day 2, Cohort 1 (5-day)): 0
- Erythema grade 0, n/N subjects (Day 2, Cohort 1 (5-day)): 44/67
- Erythema grade 1, n/N subjects (Day 2, Cohort 1 (5-day)): 20/67
- Erythema grade 2, n/N subjects (Day 2, Cohort 1 (5-day)): 3/67
- Erythema grade 3, n/N subjects (Day 2, Cohort 1 (5-day)): 0
- Erythema grade 4, n/N subjects (Day 2, Cohort 1 (5-day)): 0
- Flaking/Scaling grade 0, n/N subjects (Day 2, Cohort 1 (5-day)): 51/67
- Flaking/Scaling grade 1, n/N subjects (Day 2, Cohort 1 (5-day)): 15/67
- Flaking/Scaling grade 2, n/N subjects (Day 2, Cohort 1 (5-day)): 1/67
- Flaking/Scaling grade 3, n/N subjects (Day 2, Cohort 1 (5-day)): 0
- Flaking/Scaling grade 4, n/N subjects (Day 2, Cohort 1 (5-day)): 0
- Swelling grade 0, n/N subjects (Day 2, Cohort 1 (5-day)): 67/67
- Swelling grade 1, n/N subjects (Day 2, Cohort 1 (5-day)): 0
- Swelling grade 2, n/N subjects (Day 2, Cohort 1 (5-day)): 0
- Swelling grade 3, n/N subjects (Day 2, Cohort 1 (5-day)): 0
- Swelling grade 4, n/N subjects (Day 2, Cohort 1 (5-day)): 0
- Vesiculation/Pustulation grade 0, n/N subjects (Day 2, Cohort 1 (5-day)): 67/67
- Vesiculation/Pustulation grade 1, n/N subjects (Day 2, Cohort 1 (5-day)): 0
- Vesiculation/Pustulation grade 2, n/N subjects (Day 2, Cohort 1 (5-day)): 0
- Vesiculation/Pustulation grade 3, n/N subjects (Day 2, Cohort 1 (5-day)): 0
- Vesiculation/Pustulation grade 4, n/N subjects (Day 2, Cohort 1 (5-day)): 0
- Crusting grade 0, n/N subjects (Day 3, Cohort 1 (5-day)): 63/67
- Crusting grade 1, n/N subjects (Day 3, Cohort 1 (5-day)): 3/67
- Crusting grade 2, n/N subjects (Day 3, Cohort 1 (5-day)): 1/67
- Crusting grade 3, n/N subjects (Day 3, Cohort 1 (5-day)): 0
- Crusting grade 4, n/N subjects (Day 3, Cohort 1 (5-day)): 0
- Erosion/Ulceration grade 0, n/N subjects (Day 3, Cohort 1 (5-day)): 66/67
- Erosion/Ulceration grade 1, n/N subjects (Day 3, Cohort 1 (5-day)): 1/67
- Erosion/Ulceration grade 2, n/N subjects (Day 3, Cohort 1 (5-day)): 0
- Erosion/Ulceration grade 3, n/N subjects (Day 3, Cohort 1 (5-day)): 0
- Erosion/Ulceration grade 4, n/N subjects (Day 3, Cohort 1 (5-day)): 0
- Erythema grade 0, n/N subjects (Day 3, Cohort 1 (5-day)): 32/67
- Erythema grade 1, n/N subjects (Day 3, Cohort 1 (5-day)): 24/67
- Erythema grade 2, n/N subjects (Day 3, Cohort 1 (5-day)): 10/67
- Erythema grade 3, n/N subjects (Day 3, Cohort 1 (5-day)): 1/67
- Erythema grade 4, n/N subjects (Day 3, Cohort 1 (5-day)): 0
- Flaking/Scaling grade 0, n/N subjects (Day 3, Cohort 1 (5-day)): 46/67
- Flaking/Scaling grade 1, n/N subjects (Day 3, Cohort 1 (5-day)): 14/67
- Flaking/Scaling grade 2, n/N subjects (Day 3, Cohort 1 (5-day)): 5/67
- Flaking/Scaling grade 3, n/N subjects (Day 3, Cohort 1 (5-day)): 2/67
- Flaking/Scaling grade 4, n/N subjects (Day 3, Cohort 1 (5-day)): 0
- Swelling grade 0, n/N subjects (Day 3, Cohort 1 (5-day)): 67/67
- Swelling grade 1, n/N subjects (Day 3, Cohort 1 (5-day)): 0
- Swelling grade 2, n/N subjects (Day 3, Cohort 1 (5-day)): 0
- Swelling grade 3, n/N subjects (Day 3, Cohort 1 (5-day)): 0
- Swelling grade 4, n/N subjects (Day 3, Cohort 1 (5-day)): 0
